The values below come from patent US7915199B1, “Herbicidal composition” (Syngenta Crop Protection, Inc., priority 1999, dated 2011).

A word on the melting point: it is the temperature of the solid-liquid transition.

Regarding `CCc1cc(C)cc(C)c1-c1c(O)n2n(c1=O)CCOCC2`, the melting point lay in the range of 182 to 185 °C. Take `CCc1cc(C)cc(C)c1-c1c(OC(=O)C(C)(C)C)n2n(c1=O)CCOCC2`: the melting point fell in the range of 110 to 113 °C. The same measure for `CCOC(=O)Oc1c(-c2c(CC)cc(C)cc2CC)c(=O)n2n1CCOCC2`: 114 to 116 °C.

`Cc1cc(C)c(-c2c(O)n3n(c2=O)CCOCC3)c(C(C)C)c1` registered a melting point of 214 to 216 °C. The same measure for `Cc1cc(C)c(-c2c(OC(=O)C(C)(C)C)n3n(c2=O)CCOCC3)c(C(C)C)c1`: 148 to 151 °C. As for `COc1cc(C)cc(Br)c1-c1c(O)n2n(c1=O)CCOCC2`, the melting point fell in the range of 217 to 219 °C. Turning to `COc1cc(C)cc(Br)c1-c1c(OC(=O)C(C)(C)C)n2n(c1=O)CCOCC2`, the melting point is 173 to 175 °C.
